Tests used:
[1] = target: T1, human recombinant PDE9 protein (Homo sapiens, UniProt O76083); assay: Measurement of PDE9-inhibiting activity ([3H]-cGMP hydrolysis); assay type: biochemical; conditions: Tables A and C; read-out: Inhibiting Activity (IC50 value) PDE9
T1 construct: made in house; host or cells: COS-1 cells, transient transfection with pcDNA 3.1 (+); supernatant of the homogenate, not purified
Protocol: Based on the base sequence of hsPDE9A1 registered with GenBank database (accession No.: AF048837), hsPDE9A1 fragment was amplified by polymerase chain reaction under the following conditions, using the following sequence (Amasham Pharmacia Biotech) as the primer and Human Prostate […] cDNA library (CLONTECH) as the template DNA, with Pfu Turbo DNA polymerase ([…]):
PCR condition: [95° C., 5 min]×1 cycle, [(95° C., 1 min), (58° C., 2 min), (72° C., 3 min)]×25 cycles, [72° C., 10 min]×1 cycle
Thus obtained hsPDE9A1 fragment was given a restricted enzymatic treatment with NheI and NotI, and thereafter inserted into pcDNA 3.1 (+) expression vector (Invitrogen) to let it serve as a human PDE9 expression vector.
(§1) Human PDE9 expression vector-transformed Escherichia coli was mass incubated to produce a large amount of human PDE9 expression vector, which was transiently transfected into COS-1 cells, with LIPOFECTAMINE 2000 Reagent (GIBCO). The cells were homogenized in ice-cooled buffer A (40 mmol/L Tris-HCl, pH7.5, 15 mmol/L benzamidine, 15 mmol/L 2-mercaptoethanol, 1 μg/mL Pepstatin A, 1 μg/mL Leupeptin, 5 mmol/L EDTA) and centrifuged at 4° C., 14,000×g for 10 minutes. The supernatant was isolated to provide human recombinant PDE9 protein solution.
This mixed solution was incubated at 30° C. for 30 minutes and the enzymatic reaction of PDE9 was terminated by heating the system in boiling water for 90 seconds. Returning the system to room temperature, 50 μL of Snake venom (SIGMA: 1 mg/mL) was added, followed by 10 minutes' incubation at 30° C., to convert the [^3H]-5′-GMP produced in the previous reaction to [^3H]-guanosine. […] Thereafter [^3H]-guanosine was eluted with 3 mL of 3 mol/L aqueous ammonia and its radiation activity was measured with liquid scintillation counter.
PDE9 inhibition of the tested compound can be calculated by the following formula: […]
From the percent inhibition at various concentration levels of each tested compound, its IC50 value against PDE9 can be determined.

[2] = tested on: partial urethra obstruction model in guinea pigs; assay: Dysuria pathological model: partial urethra obstruction model, cystometry; assay type: in vivo, Hartley female guinea pigs; conditions: guinea pig, i.v.
Protocol: Three-four weeks old Hartley female guinea pigs (Japan SLC, Inc.) were given celiotomy under anesthesia with pentobarbital (30 mg/kg i.p.) and in their urethra to the peripheral side by 1-2 mm from the bladder neck, each a polyethylene tube of 1.4 mm in width and 2.0 mm in inner diameter was placed. After closing the wound, the guinea pigs were bred for at least 3 weeks to produce partial urethra obstruction model in guinea pigs in which occurrence of intravesical pressure rise not accompanied by micturition (uninhibited contraction) and residual urine were observed.
The model was catheterized under anesthesia with urethane (1 g/kg i.p.) at the apex of urinary bladder and right jugular vein for cystometrography and intravenous administration, respectively. The other end of the bladder catheter was connected to a pressure transducer and infusion pump via a three way stop-cock, and physiological saline was continuously infused into the bladder through the infusion pump at a rate of 0.4 mL/min to induce micturition reflex. Immediately after the micturition reflex was induced, infusion of physiological saline into the bladder was stopped. The intravesical pressure at the time the micturition reflex was induced was measured with the pressure transducer, and the obtained cystometrogram was recorded with pen recorder. The urine voided was collected with disposable type weighing dish and its weight was measured. Further the physiological saline remained in the bladder was sucked with syringe via the bladder catheter and the residual urine volume was measured. The operations of suspending the infusion of physiological saline upon induction of micturition reflex, and about 1 minute thereafter resuming the infusion of physiological saline to induce micturition reflex were repeated plural times (generally 4 times) to stabilize the micturition reflex.
After stabilizing the micturition reflex, a compound solution (prepared by dissolving the compound or methanesulfonic acid salt thereof in DMSO and diluting it with physiological saline or distilled water) or physiological saline was administered into the vein at a volume of 10 mL/kg over 4 minutes, and simultaneously the above-described micturition reflex operations were repeated until 30 minutes passed after initiation of the administration, while measuring the intravesical pressure and the volumes of micturition and residual urine. Also the frequency of uninhibited contraction occurrence during the above-described operations was recorded.

[3] = target: T2, human recombinant PDE5 protein (Homo sapiens, UniProt O76074); assay: Measurement of PDE5-inhibiting activity; assay type: biochemical; conditions: Tables A and C; read-out: Inhibiting Activity (IC50 value) PDE5
T2 construct: made in house; host or cells: COS-1 cells, transient transfection with pcDNA 3.1 (+); supernatant of the homogenate, not purified
Protocol: PCR condition: [94° C., 2 min]×1 cycle, [(94° C., 30 sec), (65° C., 30 sec), (68° C., 3 min)]×25 cycles, [68° C., 6 min]×1 cycle
Thus obtained hsPDE5A1 fragment was given a restricted enzymatic treatment with XBaI and EcoRI, and thereafter inserted into pcDNA 3.1 (+) expression vector (Invitrogen) to let it serve as a human PDE5 expression vector.
as §1, with “PDE5” for “PDE9”, “A” for “A (40 mmol/L Tris-HCl, pH7.5, 15 mmol/L benzamidine, 15 mmol/L 2-mercaptoethanol, 1 μg/mL Pepstatin A, 1 μg/mL Leupeptin, 5 mmol/L EDTA)”

T1 sequence (O76083 whole entry): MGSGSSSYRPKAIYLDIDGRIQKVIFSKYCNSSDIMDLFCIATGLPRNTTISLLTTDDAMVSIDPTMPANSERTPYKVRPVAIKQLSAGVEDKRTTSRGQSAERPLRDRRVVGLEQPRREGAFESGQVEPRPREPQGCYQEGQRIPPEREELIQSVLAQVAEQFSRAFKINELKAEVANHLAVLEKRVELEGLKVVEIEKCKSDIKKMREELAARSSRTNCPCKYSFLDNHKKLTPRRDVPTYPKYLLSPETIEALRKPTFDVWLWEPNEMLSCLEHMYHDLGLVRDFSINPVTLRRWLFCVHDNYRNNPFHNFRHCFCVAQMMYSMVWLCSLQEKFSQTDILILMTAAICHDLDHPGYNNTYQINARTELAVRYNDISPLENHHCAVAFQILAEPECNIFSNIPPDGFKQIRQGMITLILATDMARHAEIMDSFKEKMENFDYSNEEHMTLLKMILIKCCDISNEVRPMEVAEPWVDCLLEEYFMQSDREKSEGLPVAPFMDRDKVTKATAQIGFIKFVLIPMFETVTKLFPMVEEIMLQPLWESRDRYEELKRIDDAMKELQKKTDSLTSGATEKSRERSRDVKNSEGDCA

Row | SMILES | IC50 [1] [nM] | Frequency of occurrence of uninhibited contraction after administration ([2]; 0.3 mg/kg) [times/min] | Frequency of occurrence of uninhibited contraction volume change ([2]; 0.3 mg/kg) [times/min] | Residual urine volume after administration ([2]; 0.3 mg/kg) [mL] | Residual urine volume volume change ([2]; 0.3 mg/kg) | Frequency of occurrence of uninhibited contraction after administration ([2]; 3 mg/kg) [times/min] | Frequency of occurrence of uninhibited contraction volume change ([2]; 3 mg/kg) [times/min] | Residual urine volume after administration ([2]; 3 mg/kg) [mL] | Residual urine volume volume change ([2]; 3 mg/kg) | Frequency of occurrence of uninhibited contraction after administration ([2]; 10 mg/kg) [times/min] | Frequency of occurrence of uninhibited contraction volume change ([2]; 10 mg/kg) [times/min] | Residual urine volume after administration ([2]; 10 mg/kg) [mL] | Residual urine volume volume change ([2]; 10 mg/kg) [mL] | IC50 [3] [nM] | Frequency of occurrence of uninhibited contraction after administration ([2]; 1 mg/kg) [times/min] | Frequency of occurrence of uninhibited contraction volume change ([2]; 1 mg/kg) [times/min] | Residual urine volume after administration ([2]; 1 mg/kg) [mL] | Residual urine volume volume change ([2]; 1 mg/kg)
1 | Cc1c(C(=O)O)sc2nc(Cc3cccc(Cl)c3)[nH]c(=O)c12 [A-4, 2-(3-Chlorobenzyl)-5-methyl-4-oxo-3,4-dihydrothieno[2,3-d]-pyrimidine-6-carboxylic acid] | 30 | 0.80 | −0.36 | 1.08 | +0.13 mL | 0.49 | −0.67 | 1.11 | +0.16 mL | 0.60 | −0.56 | 0.95 | 0.00 | 6770 |  |  |  | 
2 | Cc1c(C(=O)O)sc2nc(Cc3ccc(Cl)c(Cl)c3)[nH]c(=O)c12 [A-7, 2-(3,4-Dichlorobenzyl)-5-methyl-4-oxo-3,4-dihydrothieno-[2,3-d]pyrimidine-6-carboxylic acid] | 38 |  |  |  |  | 0.77 | −0.39 | 1.03 | -0.30 mL | 0.64 | −0.47 | 0.64 | -0.42 | 915 | 0.79 | −0.17 | 0.86 | +0.04 mL
3 | O=C(O)c1cc2c(=O)[nH]c(CC3=CCCC3)nc2s1 [A-21, 2-(Cyclopent-1-enylmethyl)-4-oxo-3,4-dihydrothieno[2,3-d]-pyrimidine-6-carboxylic acid] | 22 | 0.55 | −0.53 | 1.02 | -0.52 mL | 0.78 | −0.66 | 0.88 | -0.49 mL | 0.83 | −0.74 | 0.62 | -1.06 | 12100 |  |  |  | 
4 | Cc1c(C(=O)O)sc2nc(Cc3cccc(Cl)c3)[nH]c(=S)c12 [A-26, 2-(3-Chlorobenzyl)-5-methyl-4-thioxo-3,4-dihydrothieno-[2,3-d]pyrimidine-6-carboxylic acid] | 5 | 1.02 | −0.10 | 0.91 | -0.11 mL | 0.76 | −0.36 | 0.27 | -0.75 mL | 0.59 | −0.53 | 0.48 | -0.54 | 1110 |  |  |  | 

Source: patent US20100113484A1, “TREATING AGENT OF UROPATHY” (ASKA PHARMACEUTICAL CO., LTD., priority 2006, published 2010)
